Measured values taken from patent US9090615B2, “Adamantyl derivatives as cannabinoid receptor 2 agonists” (Hoffmann-La Roche Inc., priority 2012, dated 2015).
Where two headings read alike, the source gives them in different places.

Molecular target: T1, human CB2 receptors (Homo sapiens, UniProt P34972)
T1 construct: expressed in transfected cells; host or cells: CHO cells
Assay: functional cAMP assay, CHO cells expressing human CB2
Format: cell-based
Protocol: The growth medium was exchanged with Krebs Ringer Bicarbonate buffer with 1 mM IBMX and incubated at 30° C. for 30 min. Compounds were added to a final assay volume of 100 μl and incubated for 30 min at 30° C. […] The time-resolved energy transfer is measured by a TRF reader (Evotec Technologies GmbH), equipped with a ND:YAG laser as excitation source. The plate is measured twice with the excitation at 355 nm and at the emission with a delay of 100 ns and a gate of 100 ns, total exposure time 10 s at 730 (bandwidth 30 nm) or 645 nm (bandwidth 75 nm), respectively.
EC50 values were determined using Activity Base analysis (ID Business Solution, Limited).

[1] = CHO cells expressing human CB2, read-out: Ec50:CB2 - hu cAMP

T1 sequence (P34972 whole entry): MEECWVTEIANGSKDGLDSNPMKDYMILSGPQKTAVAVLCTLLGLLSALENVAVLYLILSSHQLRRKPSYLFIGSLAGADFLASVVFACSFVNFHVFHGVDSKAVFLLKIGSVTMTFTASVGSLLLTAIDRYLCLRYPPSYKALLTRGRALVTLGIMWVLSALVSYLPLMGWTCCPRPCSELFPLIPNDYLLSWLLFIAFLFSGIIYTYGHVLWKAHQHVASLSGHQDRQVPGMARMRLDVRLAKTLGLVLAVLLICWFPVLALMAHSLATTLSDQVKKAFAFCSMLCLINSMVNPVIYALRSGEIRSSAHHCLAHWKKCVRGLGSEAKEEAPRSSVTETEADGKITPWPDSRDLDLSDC

Row | Structure (SMILES) | EC50 | EC50 [1]
1 | Cc1cccc2c1N(C(=O)C13CC4CC(CC(C4)C1)C3)CC2 [Example 28, Adamantan-1-yl-(7-methyl-2,3-dihydro-indol-1-yl)-methanone] | 55.7 nM | 
2 | O=C(N1Cc2ccccc2C1)C12CC3CC(CC(C3)C1)C2 [Example 21, Adamantan-1-yl-(1,3-dihydro-isoindol-2-yl)-methanone] |  | 19.9 nM
3 | COC1CCN(C(=O)C23CC4CC(CC(C4)C2)C3)c2ccccc21 (stereo not drawn) [Example 36, Adamantan-1-yl-(4-methoxy-3,4-dihydro-2H-quinolin-1-yl)-methanone] |  | 27.2 nM
4 | CCOC1CCN(C(=O)C23CC4CC(CC(C4)C2)C3)c2ccccc21 (stereo not drawn) [Example 12, Adamantan-1-yl-(4-ethoxy-3,4-dihydro-2H-quinolin-1-yl)-methanone] | 18.6 nM | 
5 | O=C(NC12CC3CC(CC(C3)C1)C2)N1Cc2ccccc2C1 [Example 42, 1,3-Dihydro-isoindole-2-carboxylic acid adamantan-1-ylamide] |  | 22.1 nM
6 | Cc1cccc2c1CCN2C(=O)C12CC3CC(CC(C3)C1)C2 [Example 30, Adamantan-1-yl-(4-methyl-2,3-dihydro-indol-1-yl)-methanone] |  | 4.3 nM
7 | O=C(N1CCc2ccccc21)C12CC3CC(CC(C3)C1)C2 [Example 11, Adamantan-1-yl-(2,3-dihydro-indol-1-yl)-methanone] |  | 23.2 nM
8 | O=C(N1CCc2ccc(C(F)(F)F)cc21)C12CC3CC(CC(C3)C1)C2 [Example 17, Adamantan-1-yl-(6-trifluoromethyl-2,3-dihydro-indol-1-yl)-methanone] | 14.6 nM | 
9 | O=C(N1CCc2ccccc21)C12CC3CC(CC(O)(C3)C1)C2 [Example 41, (2,3-Dihydro-indol-1-yl)-(3-hydroxy-adamantan-1-yl)-methanone] |  | 492 nM
10 | COCCOC1CCN(C(=O)C23CC4CC(CC(C4)C2)C3)c2ccccc21 (stereo not drawn) [Example 33, Adamantan-1-yl-[4-(2-methoxy-ethoxy)-3,4-dihydro-2H-quinolin-1-yl]-methanone] | 21.3 nM | 
11 | O=C(N1CCc2cc(F)ccc21)C12CC3CC(CC(C3)C1)C2 [Example 18, Adamantan-1-yl-(5-fluoro-2,3-dihydro-indol-1-yl)-methanone] |  | 4.6 nM
12 | O=C(N1CCCc2ccccc21)C12CC3CC(CC(C3)C1)C2 [Example 2, Adamantan-1-yl-(3,4-dihydro-2H-quinolin-1-yl)-methanone] |  | 71.6 nM
